19 compounds from paper PMC12136037, “Type II kinase inhibitors that target Parkinson’s disease–associated LRRK2” (Science Advances, 2025) can be followed below.

What all share (assay): DSF 100 kinase selectivity screen;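 further: compound tested at 20 µM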
Common to all, as to type: binding

Assay [1] has as its target T1, ~100 representative kinases (Homo sapiens, UniProt O94768).
T1 construct: Recombinant protein kinase domains with a concentration of 2 μM
T1 sequence (O94768 1-372): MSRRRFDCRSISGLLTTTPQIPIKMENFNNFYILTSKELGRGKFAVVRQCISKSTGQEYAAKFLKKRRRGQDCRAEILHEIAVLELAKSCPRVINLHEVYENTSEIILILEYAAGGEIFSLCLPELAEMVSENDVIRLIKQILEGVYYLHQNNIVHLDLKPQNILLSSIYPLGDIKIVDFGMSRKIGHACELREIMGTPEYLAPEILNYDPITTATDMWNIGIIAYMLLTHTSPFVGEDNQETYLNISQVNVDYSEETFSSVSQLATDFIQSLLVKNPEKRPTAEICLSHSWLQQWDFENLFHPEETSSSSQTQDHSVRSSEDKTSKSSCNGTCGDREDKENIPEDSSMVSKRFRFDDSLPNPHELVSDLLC
The note with it: Protein STK17B; DSF; average of three replicates. The method, boiled down:
(§1)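 Each kinase domain, at 2 μM, is mixed with 20 μM test compound and SYPRO Orange in Hepes (20 mM, pH 7.5) with 500 mM NaCl. Temperature is then raised at 3°C/min and fluorescence-monitored unfolding yields the melting temperature change, ΔTm in degrees Celsius.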

For assay [2], the target named is T2, ~100 representative kinases (Homo sapiens, UniProt Q8TD08).
T2 construct: Recombinant protein kinase domains with a concentration of 2 μM
T2 sequence (Q8TD08 1-544): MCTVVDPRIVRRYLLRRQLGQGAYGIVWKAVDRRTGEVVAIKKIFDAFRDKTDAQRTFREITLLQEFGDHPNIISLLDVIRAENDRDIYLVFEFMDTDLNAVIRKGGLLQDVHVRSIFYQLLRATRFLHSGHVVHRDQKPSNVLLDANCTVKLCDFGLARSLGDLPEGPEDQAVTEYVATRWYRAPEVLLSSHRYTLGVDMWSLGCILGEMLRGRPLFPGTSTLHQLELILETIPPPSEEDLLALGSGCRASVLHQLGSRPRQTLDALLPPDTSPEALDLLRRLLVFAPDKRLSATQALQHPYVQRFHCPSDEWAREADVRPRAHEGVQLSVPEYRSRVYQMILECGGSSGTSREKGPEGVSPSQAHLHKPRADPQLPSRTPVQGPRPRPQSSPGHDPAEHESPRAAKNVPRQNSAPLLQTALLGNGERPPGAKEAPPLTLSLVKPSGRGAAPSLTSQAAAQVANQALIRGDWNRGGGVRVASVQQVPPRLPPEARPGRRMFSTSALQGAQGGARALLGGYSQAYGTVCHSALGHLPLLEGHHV
The settings on record: protein MAPK15; average of three replicates. The method, boiled down: as §1

Assay [3] deals with T3, ~100 representative kinases (Homo sapiens, UniProt Q99683).
T3 construct: Recombinant protein kinase domains with a concentration of 2 μM
T3 sequence (Q99683 1-1374): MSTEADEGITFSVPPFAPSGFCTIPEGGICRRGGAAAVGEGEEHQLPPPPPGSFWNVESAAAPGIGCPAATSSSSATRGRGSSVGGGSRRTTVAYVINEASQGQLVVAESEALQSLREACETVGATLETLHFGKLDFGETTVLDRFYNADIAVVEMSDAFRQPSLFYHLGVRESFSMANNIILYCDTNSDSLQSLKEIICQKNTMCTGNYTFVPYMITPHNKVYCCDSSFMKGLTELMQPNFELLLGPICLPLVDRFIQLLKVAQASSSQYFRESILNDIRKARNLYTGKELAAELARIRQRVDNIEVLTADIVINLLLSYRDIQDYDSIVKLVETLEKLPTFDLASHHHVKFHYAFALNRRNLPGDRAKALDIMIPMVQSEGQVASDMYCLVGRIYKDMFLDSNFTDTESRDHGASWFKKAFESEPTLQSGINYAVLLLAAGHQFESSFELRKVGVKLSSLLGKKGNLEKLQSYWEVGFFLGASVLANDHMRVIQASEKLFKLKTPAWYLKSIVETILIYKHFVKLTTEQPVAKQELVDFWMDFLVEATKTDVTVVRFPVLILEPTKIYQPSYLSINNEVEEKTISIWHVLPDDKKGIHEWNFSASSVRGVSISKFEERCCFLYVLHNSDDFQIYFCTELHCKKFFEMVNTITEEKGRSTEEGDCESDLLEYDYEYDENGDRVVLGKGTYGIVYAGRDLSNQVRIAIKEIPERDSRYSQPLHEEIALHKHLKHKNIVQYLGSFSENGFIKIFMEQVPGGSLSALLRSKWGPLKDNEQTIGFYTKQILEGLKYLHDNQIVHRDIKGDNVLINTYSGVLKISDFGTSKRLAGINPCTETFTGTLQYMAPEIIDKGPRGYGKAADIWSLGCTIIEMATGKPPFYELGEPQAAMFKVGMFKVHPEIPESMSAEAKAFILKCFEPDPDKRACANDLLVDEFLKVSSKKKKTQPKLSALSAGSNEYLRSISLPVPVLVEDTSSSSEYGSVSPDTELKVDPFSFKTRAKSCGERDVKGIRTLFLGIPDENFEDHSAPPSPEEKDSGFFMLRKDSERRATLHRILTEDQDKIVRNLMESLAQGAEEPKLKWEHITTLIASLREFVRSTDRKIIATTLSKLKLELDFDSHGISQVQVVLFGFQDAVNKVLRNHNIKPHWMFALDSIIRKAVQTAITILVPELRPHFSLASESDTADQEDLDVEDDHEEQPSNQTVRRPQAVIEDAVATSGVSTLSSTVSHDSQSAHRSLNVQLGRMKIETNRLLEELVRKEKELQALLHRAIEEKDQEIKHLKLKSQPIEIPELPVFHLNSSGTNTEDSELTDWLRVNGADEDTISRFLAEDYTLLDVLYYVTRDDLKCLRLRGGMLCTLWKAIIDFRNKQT
The settings on record: protein MAP3K5; average of three replicates. Summed up: as §1

Assay [4] addresses T4, ~100 representative kinases (Homo sapiens, UniProt O14965).
T4 construct: Recombinant protein kinase domains with a concentration of 2 μM
T4 sequence (O14965 1-403): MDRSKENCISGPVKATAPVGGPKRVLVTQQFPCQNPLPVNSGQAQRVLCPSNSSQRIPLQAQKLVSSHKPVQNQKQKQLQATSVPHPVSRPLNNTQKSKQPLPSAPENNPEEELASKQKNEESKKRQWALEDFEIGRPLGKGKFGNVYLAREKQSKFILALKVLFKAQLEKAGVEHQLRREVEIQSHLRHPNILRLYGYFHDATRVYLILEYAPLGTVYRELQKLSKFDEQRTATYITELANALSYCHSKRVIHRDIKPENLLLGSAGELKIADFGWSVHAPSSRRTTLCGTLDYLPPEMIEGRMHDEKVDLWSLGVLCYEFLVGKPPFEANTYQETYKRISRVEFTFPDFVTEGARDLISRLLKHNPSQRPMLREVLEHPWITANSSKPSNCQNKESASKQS
The note with it: Protein STK6; DSF; average of three replicates. Summed up: as §1

Consider `Cc1ccc(C(=O)Nc2ccc(CN3CCN(C)CC3)c(C(F)(F)F)c2)cc1C#Cc1c[nH]c2ncnc(N3CCOCC3)c12` [Compound 1], for which the dTm in assay [1] is 0.19 K; in assay [2] it was 8.49 K; in assay [3] it was 6.86 K; in assay [4], 12.62 K.

In the case of `O=C(Nc1ccc(F)cc1)C1(C(=O)Nc2cccc(-c3c[nH]c4ncnc(N5CCOCC5)c34)c2)CC1` [Compound 2], the dTm in assay [1] is given as 6.81 K; in assay [2] it was 10.01 K; in assay [3] it was 3.63 K; in assay [4], 6.07 K.

With `O=C(Nc1cccc(-c2c[nH]c3ncnc(N4CCOCC4)c23)c1)c1cccn(-c2ccc(F)cc2)c1=O` [Compound 4], the dTm in assay [1] is given as 6.49 K; in assay [2] it was 7.29 K; in assay [3] it was 4.59 K; in assay [4], 7.18 K.

With `Cc1cc(NC(=O)C2(C(=O)Nc3ccc(F)cc3)CC2)cc(-c2c[nH]c3ncnc(N4CCOCC4)c23)c1` [Compound 6], the dTm came to 0.00 K in assay [1], 5.91 K in assay [2], 4.24 K in assay [3] and 6.69 K in assay [4].

In the case of `O=C(Nc1cccc(-c2c[nH]c3ncnc(N4CCOCC4)c23)c1)C1(C(=O)Nc2cccc3c2CCC3)CC1` [Compound 11], the dTm in assay [1] is given as 0.00 K; in assay [2], 5.24 K; in assay [3], 3.33 K; in assay [4], 4.34 K.

With `O=C(Nc1ccccc1)C1(C(=O)Nc2cccc(-c3c[nH]c4ncnc(N5CCOCC5)c34)c2)CC1` [Compound 12], the dTm came to 7.92 K in assay [1], 8.68 K in assay [2], 2.42 K in assay [3] and 6.39 K in assay [4].

As for `O=C(Nc1ccc(Cl)cc1)C1(C(=O)Nc2cccc(-c3c[nH]c4ncnc(N5CCOCC5)c34)c2)CC1` [Compound 13], the dTm in assay [1] was found to be 8.61 K; in assay [2], 9.74 K; in assay [3], 4.01 K; in assay [4], 9.16 K.

In the case of `Cc1ccc(NC(=O)C2(C(=O)Nc3cccc(-c4c[nH]c5ncnc(N6CCOCC6)c45)c3)CC2)cc1` [Compound 14], the dTm in assay [1] is on record as 4.70 K; in assay [2], 5.81 K; in assay [3] it was 1.35 K; in assay [4] it was 7.04 K.

For `CCc1ccc(NC(=O)C2(C(=O)Nc3cccc(-c4c[nH]c5ncnc(N6CCOCC6)c45)c3)CC2)cc1` [Compound 15], the dTm is 6.64 K in assay [1], 5.20 K in assay [2], 1.27 K in assay [3] and 9.54 K in assay [4].

As for `COc1ccc(NC(=O)C2(C(=O)Nc3cccc(-c4c[nH]c5ncnc(N6CCOCC6)c45)c3)CC2)cc1` [Compound 16], the dTm in assay [1] is reported as 2.09 K; in assay [2] it was 2.17 K; in assay [3] it was 0.46 K; in assay [4], 5.48 K.

As for `O=C(Nc1cccc(-c2c[nH]c3ncnc(N4CCOCC4)c23)c1)C1(C(=O)Nc2ccc(F)c(F)c2)CC1` [Compound 17], the dTm in assay [1] amounted to 6.96 K; in assay [2], 10.37 K; in assay [3], 3.32 K; in assay [4], 7.27 K.

On to `O=C(Nc1cccc(-c2c[nH]c3ncnc(N4CCOCC4)c23)c1)C1(C(=O)Nc2ccc(F)c(Cl)c2)CC1` [Compound 18], for which the dTm in assay [1] is on record as 9.48 K; in assay [2] it was 12.35 K; in assay [3], 3.67 K; in assay [4], 8.24 K.

Consider `O=C(Nc1cccc(-c2c[nH]c3ncnc(N4CCOCC4)c23)c1)C1(C(=O)Nc2ccc(F)c(Br)c2)CC1` [Compound 19], for which the dTm turned out to be 0.00 K in assay [1], 11.25 K in assay [2], 5.22 K in assay [3] and 7.49 K in assay [4].

Turning to `Cc1cc(NC(=O)C2(C(=O)Nc3cccc(-c4c[nH]c5ncnc(N6CCOCC6)c45)c3)CC2)ccc1F` [Compound 20], the dTm in assay [1] turned out to be 10.15 K; in assay [2], 12.42 K; in assay [3], 4.77 K; in assay [4], 8.40 K.

Take `COc1cc(NC(=O)C2(C(=O)Nc3cccc(-c4c[nH]c5ncnc(N6CCOCC6)c45)c3)CC2)ccc1F` [Compound 21]: the dTm is 8.47 K in assay [1], 10.35 K in assay [2], 2.37 K in assay [3] and 6.06 K in assay [4].

In the case of `CC(C)(C)c1cccc(NC(=O)C2(C(=O)Nc3cccc(-c4c[nH]c5ncnc(N6CCOCC6)c45)c3)CC2)c1` [Compound 22], the dTm in assay [1] was 0.00 K; in assay [2], 6.32 K; in assay [3], 2.56 K; in assay [4], 6.69 K.

Regarding `COc1cc2c(Oc3ccc(NC(=O)C4(C(=O)Nc5ccc(F)cc5)CC4)cc3F)ccnc2cc1OCCCN1CCOCC1` [Foretinib, reference compound], the dTm was 3.63 K in assay [1], 8.58 K in assay [2] and 2.33 K in assay [3].

On to `Cc1ccc(C(=O)Nc2ccc(CN3CCN(C)CC3)c(C(F)(F)F)c2)cc1C#Cc1cnc2cccnn12` [Ponatinib, reference compound], for which the dTm in assay [1] was -1.68 K; in assay [4], 1.61 K.

With `CN[C@@H]1C[C@H]2O[C@@](C)([C@@H]1OC)n1c3ccccc3c3c4c(c5c6ccccc6n2c5c31)C(=O)NC4` [Staurosporine], in assay [4], the dTm was 20.49 K.
